Measured values: patent US20230234920A1, “Azirine Containing Compounds as Anti-Angiogenesis Agents and a Process for the Preparation Thereof” (COUNCIL OF SCIENTIFIC & INDUSTRIAL RESEARCH, priority 2020, published 2023)

Legend:
[1] = Intramuscular pharmacokinetic study of chiral isomers 1 and 2; format: in vivo, male Sprague Dawley (SD) rats; settings: IM 20 mg/kg
Experimental: In vivo pharmacokinetic study was performed in male Sprague Dawley (SD) rats (n=4). Intramuscular (IM) formulation of compound 1 Chiral 1 and 2 were prepared by individually dissolving accurately weighed quantity of compound 1, chiral isomers 1 and 2 (20 mg) in 1 mL of olive oil followed by vortexing for 2 min and sterilize through syringe filter. Blood samples were collected from the retro orbital plexus of rats under light ether anesthesia into microfuge tubes containing heparin as an anti-coagulant at 0.25, 0.5, 1, 3, 5, 7, 9, 24, 30, 48 and 72 hours post-dosing after intramuscular dose. Plasma sample was harvested by centrifuging the blood at 13000 rpm for 10 min on Sigma 1-15 K (Frankfurt, Germany) and stored frozen at −70±10° C. until bioanalysis. Each plasma sample (100 μl) was processed using protein precipitation method using 200 μl acetonitrile containing medicarpine as internal standard (I.S.) as protein precipitant, and 10 μl of the supernatant was injected for LC-MS/MS.

HUVECs = experiment: Capillary-like tube formation assay (tubulogenesis); format: cell-based, human; settings: for tubule formation: 6 h; for IC50: Homo sapiens, HUVEC, endothelial tubule network assay, anti-angiogenic activity, read-out: IC50 value
Experimental: FIG. 2 represents effect of Compound 1 on capillary tube formation of HUVECs. Endothelial cells in Matrigel were incubated with ECM basal medium in the presence of compound 1 at the indicated concentrations for 6 h. Cell viability was assessed by Calcein-AM dye added few min. before the completion of 6 h. then photographs at 10×magnification were taken using an inverted microscope. The tubule length of HUVECs was quantified by Leica QWin software. Tubule network formation is expressed as a percentage of that vehicle (0.1% DMSO) treated cells (control).
FIG. 9 represents effect of racemic mixture (chiral isomer 1-1 and chiral isomer 2-1) of Compound 1 on capillary tube formation of HUVECs. Endothelial cells seeded in matrigel were incubated at the indicated concentrations of compound 1 racemic mixtures (1-1 and 2-1) with ECM basal medium for 6 h. Calcein-AM treatment was added to the ECs few minutes before completion of 6 h and pictures were captured using an inverted microscope at 10×magnification. The tubular structures of HUVECs were measured using Leica QWin software and tubulogenesis was expressed as a % of that vehicle (0.1% DMSO) treated cells (control) well.
HUVEC cells were incubated with or without sunitinib (20 nM) for 6 h at indicated concentrations of chiral isomers of Compound 1 (1-1 and 2-1). Photographs were taken using an inverted microscope at 10×magnification after Calcein-AM treatment to the ECs few minutes before completion of 6 h. The tubule length of HUVECs was quantified by Leica QWin software represented as a % of that vehicle (0.1% DMSO) treated cells (control) well.
To examine the effect of Compound 1 on angiogenesis, capillary tube formation assay was performed on regular or reduced growth factor Matrigel, taking VEGF (50 ng/mL) treated cells as a positive control and sunitinib (50 nM) as a negative control (FIG. 2). HUVECs seeded onto the matrigel with compound 1 at different concentrations of (10 μM, 5 μM, 1 μM, 800 nM, 500 nM, 250 nM, 125 nM, 75 nM, 50 nM, 25 nM and 10 nM) were incubated for six hours.
HUVECs (Human Umbilical Vein Endothelial Cells) were seeded onto the pre-coated matrigel (CORNING; 354230) in 96 wells plate at the rate of 11000 cells/well in incomplete ECM basal medium. Control group received vehicle, VEGF at 50 ng/mL as a positive and sunitinib at 50 nM as a negative control were used. Compound 1 at different dose concentrations (10 μM, 5 μM, 1 μM, 800 nM, 500 nM, 250 nM, 100 nM, 75 nM, 50 nM and 25 nM) were employed on seeded HUVECs in incomplete medium. Post 6 h of incubation Calcein-AM (Invitrogen) was added to all the respective groups and then the tubule pattern was observed and photographs were taken using an inverted fluorescent microscope (DM 6000, Leica Microsystems, USA). Relative tubule lengths were measured using Leica Q-Win software version 3.5.1. (Leica Microsystems, Switzerland).

[2] = Intramuscular pharmacokinetic study of bulk compound 1 and chiral isomers; format: in vivo, male Sprague Dawley (SD) rats; settings: IM 20 mg/kg
Experimental: In vivo pharmacokinetic study was performed in male Sprague Dawley (SD) rats (n=4). Intramuscular (IM) formulation of bulk of compound 1 as well as chiral isomer-1 and chiral isomer-2 was prepared by dissolving accurately weighed quantity of compound 1 (20 mg) in 1 mL of olive oil followed by vortexing for 2 min and sterilize through syringe filter. Blood samples were collected from the retro orbital plexus of rats under light ether anesthesia into microfuge tubes containing heparin as an anti-coagulant at 0.25, 0.5, 1, 3, 5, 7, 9, 24, 30, 48 and 72 hours post-dosing after intramuscular dose. Plasma sample was harvested by centrifuging the blood at 13000 rpm for 10 min on Sigma 1-15 K (Frankfurt, Germany) and stored frozen at −70±10° C. until bioanalysis. Each plasma sample (100 μl) was processed using protein precipitation method using 200 μl acetonitrile containing medicarpine as internal standard (I.S.) as protein precipitant, and 10 μl of the supernatant was injected for LC-MS/MS.

[3] = 100 nM combined with sunitinib at 20 nM

**Q.** With `CCOC(=O)[C@H]1N=C1CCc1ccc(OC)cc1` [chiral isomer (2-1)] as the compound, how does the Tmax [1] read?
**A.** The Tmax was 3 h.

**Q.** And the Plasma concentration ([1]; 0.25 h)?
**A.** Its Plasma concentration is 6640 ± 2170 ng/mL.

**Q.** What about the Plasma concentration ([1]; 0.5 h) of the same compound?
**A.** Its Plasma concentration is 7440 ± 400 ng/mL.

**Q.** What about the Plasma concentration ([1]; 1 h) of the same compound?
**A.** The Plasma concentration was 9270 ± 1960 ng/mL.

**Q.** And the Plasma concentration ([1]; 3 h)?
**A.** Its Plasma concentration is 10820 ± 1130 ng/mL.

**Q.** And the Plasma concentration ([1]; 5 h)?
**A.** Its Plasma concentration is 7500 ± 560 ng/mL.

**Q.** And the Plasma concentration ([1]; 7 h)?
**A.** Its Plasma concentration is 4300 ± 620 ng/mL.

**Q.** What about the Plasma concentration ([1]; 9 h) of the same compound?
**A.** The Plasma concentration was 2000 ± 660 ng/mL.

**Q.** What about the Plasma concentration ([1]; 24 h) of the same compound?
**A.** The Plasma concentration was 180 ± 13 ng/mL.

**Q.** What about the Plasma concentration ([1]; 30 h) of the same compound?
**A.** Its Plasma concentration is 130 ± 15 ng/mL.

**Q.** And the Plasma concentration ([1]; 48 h)?
**A.** The Plasma concentration was 76 ± 4 ng/mL.

**Q.** What about the Plasma concentration ([1]; 72 h) of the same compound?
**A.** Its Plasma concentration is 44 ± 6 ng/mL.

**Q.** What about the AUC0-72 ([1]; mean ± S.D., n = 4) of the same compound?
**A.** Its AUC0-72 is 84900 ± 6020 ng·h/mL.

**Q.** What about the “AUC0-∞” value ([1]; mean ± S.D., n = 4) of the same compound?
**A.** The value was 85480 ± 6100 ng·h/mL.

**Q.** And the Cl ([1]; mean ± S.D., n = 4)?
**A.** Its Cl is 3.83 ± 0.17 mL/min/kg.

**Q.** And the Cmax ([1]; mean ± S.D., n = 4)?
**A.** The Cmax was 10820 ± 1130 ng/mL.

**Q.** What about the Vd ([1]; mean ± S.D., n = 4) of the same compound?
**A.** Its Vd is 3.9 ± 0.24 L/kg.

**Q.** What about the t1/2 ([1]; mean ± S.D., n = 4) of the same compound?
**A.** Its t1/2 is 9.14 ± 0.12 h.

**Q.** And the tubule formation (HUVECs; [3])?
**A.** Its tubule formation is “around 30%”.

**Q.** What about the tubule formation (HUVECs; 250 nM) of the same compound?
**A.** Its tubule formation is 100%.

**Q.** And the tubule formation (HUVECs; 500 nM)?
**A.** The tubule formation was 50%.

**Q.** And the tubule formation (HUVECs; 500 nM, listed as isomer (2-1))?
**A.** The tubule formation was 50%.

**Q.** What about the tubule formation (HUVECs; 1 μM) of the same compound?
**A.** The tubule formation was 50%.

**Q.** And the Plasma concentration ([2]; 0.25 h)?
**A.** Its Plasma concentration is 409 ± 150 ng/mL.

**Q.** And the Plasma concentration ([2]; 0.5 h)?
**A.** Its Plasma concentration is 767.6 ± 50 ng/mL.

**Q.** What about the Plasma concentration ([2]; 1 h) of the same compound?
**A.** Its Plasma concentration is 557 ± 260 ng/mL.

**Q.** What about the Plasma concentration ([2]; 3 h) of the same compound?
**A.** The Plasma concentration was 745 ± 120 ng/mL.

**Q.** What about the Plasma concentration ([2]; 5 h) of the same compound?
**A.** Its Plasma concentration is 762 ± 340 ng/mL.

**Q.** And the Plasma concentration ([2]; 7 h)?
**A.** Its Plasma concentration is 536 ± 170 ng/mL.

**Q.** And the Plasma concentration ([2]; 9 h)?
**A.** The Plasma concentration was 463 ± 370 ng/mL.

**Q.** What about the Plasma concentration ([2]; 24 h) of the same compound?
**A.** Its Plasma concentration is 323 ± 40 ng/mL.

**Q.** What about the Plasma concentration ([2]; 30 h) of the same compound?
**A.** Its Plasma concentration is 246 ± 120 ng/mL.

**Q.** And the Plasma concentration ([2]; 48 h)?
**A.** The Plasma concentration was 169.3 ± 100 ng/mL.

**Q.** And the Plasma concentration ([2]; 72 h)?
**A.** Its Plasma concentration is 44.3 ± 6 ng/mL.

**Q.** What about the AUC0-72 ([2]; mean ± S.D., n = 4) of the same compound?
**A.** The AUC0-72 was 19540 ± 3260 ng·h/mL.

**Q.** What about the “AUC0-∞” value ([2]; mean ± S.D., n = 4) of the same compound?
**A.** Its value is 20644 ± 2977 ng·h/mL.

**Q.** And the Cl ([2]; mean ± S.D., n = 4)?
**A.** The Cl was 16.4 ± 2.17 mL/min/kg.

**Q.** And the Cmax ([2]; mean ± S.D., n = 4)?
**A.** Its Cmax is 945 ± 143 ng/mL.

**Q.** And the Tmax ([2]; mean ± S.D., n = 4)?
**A.** The Tmax was 3 ± 2 h.

**Q.** What about the Vd ([2]; mean ± S.D., n = 4) of the same compound?
**A.** Its Vd is 24.497 ± 6.339 L/kg.

**Q.** And the t1/2 ([2]; mean ± S.D., n = 4)?
**A.** The t1/2 was 17.11 ± 2.454 h.

**Q.** And the MRT ([2]; mean ± S.D., n = 4, in h (unit assumed))?
**A.** Its MRT is 22.671 ± 4.539.

**Q.** For `CCOC(=O)C1(C(=O)OCC)N=C1CCc1ccc(OC)cc1` [Compound 35, Diethyl 3-(4-methoxyphenethyl)-2H-azirine-2,2-dicarboxylate], which IC50 (HUVECs) is on record?
**A.** The IC50 was 250 nM.

**Q.** For `CCCOC(=O)C1N=C1CCc1ccc(OC)cc1` (stereo not drawn) [Compound 19, Propyl 3-(4-methoxyphenethyl)-2H-azirine-2-carboxylate], which IC50 (HUVECs) is on record?
**A.** Its IC50 is 800 nM.

**Q.** What does the source list for `CCOC(=O)[C@H]1N=C1CCc1ccc(OC)cc1` [Chiral isomer (1-1)]?
**A.** concentration at 0.25 h ([1]; male, Sprague-Dawley, rat, plasma, intramuscular, 0.25 h): 1520 ± 360 ng/mL; concentration at 0.5 h ([1]; male, Sprague-Dawley, rat, plasma, intramuscular, 0.5 h): 2150 ± 830 ng/mL; concentration at 1 h ([1]; male, Sprague-Dawley, rat, plasma, intramuscular, 1 h): 3020 ± 1330 ng/mL; concentration at 3 h ([1]; male, Sprague-Dawley, rat, plasma, intramuscular, 3 h): 3170 ± 940 ng/mL; concentration at 5 h ([1]; male, Sprague-Dawley, rat, plasma, intramuscular, 5 h): 3570 ± 100 ng/mL; concentration at 7 h ([1]; male, Sprague-Dawley, rat, plasma, intramuscular, 7 h): 3580 ± 750 ng/mL; concentration at 9 h ([1]; male, Sprague-Dawley, rat, plasma, intramuscular, 9 h): 4810 ± 1560 ng/mL; concentration at 24 h ([1]; male, Sprague-Dawley, rat, plasma, intramuscular, 24 h): 1930 ± 380 ng/mL; concentration at 30 h ([1]; male, Sprague-Dawley, rat, plasma, intramuscular, 30 h): 1550 ± 360 ng/mL; concentration at 48 h ([1]; male, Sprague-Dawley, rat, plasma, intramuscular, 48 h): 545 ± 90 ng/mL; concentration at 72 h ([1]; male, Sprague-Dawley, rat, plasma, intramuscular, 72 h): 110 ± 40 ng/mL; tubule formation (HUVECs; [3]): approximately 15%; tubule formation (HUVECs; 250 nM): 100%; tubule formation (HUVECs; 500 nM): 50%; tubule formation (HUVECs; 1 μM): 50%

**Q.** For `COc1ccc(CCC2=NC2C(=O)OCC(C)C)cc1` (stereo not drawn) [Compound 21, Isobutyl 3-(4-methoxyphenethyl)-2H-azirine-2-carboxylate], which IC50 (HUVECs) is on record?
**A.** Its IC50 is 750 nM.
